Reference: patent US12552783B2, “Modulators of proteolysis and associated methods of use” (Arvinas Operations, Inc., priority 2018, dated 2026)

Biological target: KRas (Homo sapiens, UniProt P01116, G12C)
Assay: KRas degradation in NCI-H2030 cells by Western blot, normalized to GAPDH (data of Table 14)
Assay type: cell-based
Parameters: host or cells: NCI-H2030
Details: for Percent Degradation at Indicated Concentration (μM): H2030; for Dmax: NCI-H2030
In short: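 Cells plated overnight, switched to FBS-free medium for 24 h, then treated (0.3, 1, 3 μM final; 0.1% DMSO) for 24 h if VHL-based, otherwise 72 h. RIPA lysates (10 μg protein) blotted for KRas, signal normalized to GAPDH and compared with DMSO.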

C=CC(=O)N1CCN(c2nc(NCCC(=O)N(C)CCOCCOCCOCCOc3ccc4c(c3)C(=O)N(C3CCC(=O)NC3=O)C4=O)nc3c(F)c(-c4c(O)cccc4F)c(Cl)cc23)CC1 [compound 73, 3-(((S)-4-(4-acryloylpiperazin-1-yl)-6-chloro-8-fluoro-7-(2-fluoro-6-hydroxyphenyl)quinazolin-2-yl)amino)-N-(2-(2-(2-(2-((2-(2,6-dioxopiperidin-3-yl)-1,3-dioxoisoindolin-5-yl)oxy)ethoxy)ethoxy)ethoxy)ethyl)-N-methylpropanamide]
Percent Degradation at Indicated Concentration (μM) (0.3 μM): C (Percent Degradation: C ≤ 35) | Percent Degradation at Indicated Concentration (μM) (1 μM): C (Percent Degradation: C ≤ 35) | Percent Degradation at Indicated Concentration (μM) (3 μM): C (Percent Degradation: C ≤ 35) | Dmax: ≤ 35%

C=CC(=O)N1CCN(c2nc(NCCC(=O)N(C)CCOCCOCCOCCOCCOc3ccc4c(c3)CN(C3CCC(=O)NC3=O)C4=O)nc3c(F)c(-c4cc(O)cc5ccccc45)c(Cl)cc23)CC1 (centres unmarked) [compound 68, 3-((4-(4-acryloylpiperazin-1-yl)-6-chloro-8-fluoro-7-(3-hydroxynaphthalen-1-yl)quinazolin-2-yl)amino)-N-(14-((2-(2,6-dioxopiperidin-3-yl)-1-oxoisoindolin-5-yl)oxy)-3,6,9,12-tetraoxatetradecyl)-N-methylpropanamide]
Percent Degradation at Indicated Concentration (μM) (0.3 μM): C (Percent Degradation: C ≤ 35) | Percent Degradation at Indicated Concentration (μM) (1 μM): C (Percent Degradation: C ≤ 35) | Percent Degradation at Indicated Concentration (μM) (3 μM): C (Percent Degradation: C ≤ 35) | Dmax: ≤ 35%

C=CC(=O)N1CCN(c2nc(NCCC(=O)N(C)CCOCCOCCOCCOc3cc(-c4scnc4C)ccc3CNC(=O)[C@@H]3C[C@@H](O)CN3C(=O)[C@@H](c3cc(C)no3)C(C)C)nc3c(F)c(-c4cc(O)cc5ccccc45)c(Cl)cc23)CC1 [compound 343, (2S,4R)-N-(2-((15-((4-(4-acryloylpiperazin-1-yl)-6-chloro-8-fluoro-7-(3-hydroxynaphthalen-1-yl)quinazolin-2-yl)amino)-12-methyl-13-oxo-3,6,9-trioxa-12-azapentadecyl)oxy)-4-(4-methylthiazol-5-yl)benzyl)-4-hydroxy-1-((R)-3-methyl-2-(3-methylisoxazol-5-yl)butanoyl)pyrrolidine-2-carboxamide]
Percent Degradation at Indicated Concentration (μM) (0.3 μM): C (Percent Degradation: C ≤ 35) | Percent Degradation at Indicated Concentration (μM) (1 μM): C (Percent Degradation: C ≤ 35) | Percent Degradation at Indicated Concentration (μM) (3 μM): C (Percent Degradation: C ≤ 35) | Dmax: ≤ 35%

C=CC(=O)N1CCN(c2nc(NCCC(=O)N(C)CCOCCOCCOCCNc3cccc4c3C(=O)N(C3CCC(=O)NC3=O)C4=O)nc3c(F)c(-c4c(O)cccc4F)c(Cl)cc23)CC1 [compound 113, 3-(((S)-4-(4-acryloylpiperazin-1-yl)-6-chloro-8-fluoro-7-(2-fluoro-6-hydroxyphenyl)quinazolin-2-yl)amino)-N-(2-(2-(2-(2-((2-(2,6-dioxopiperidin-3-yl)-1,3-dioxoisoindolin-4-yl)amino)ethoxy)ethoxy)ethoxy)ethyl)-N-methylpropanamide]
Percent Degradation at Indicated Concentration (μM) (0.3 μM): C (Percent Degradation: C ≤ 35) | Percent Degradation at Indicated Concentration (μM) (1 μM): C (Percent Degradation: C ≤ 35) | Percent Degradation at Indicated Concentration (μM) (3 μM): C (Percent Degradation: C ≤ 35) | Dmax: ≤ 35%

C=CC(=O)N1CCN(c2nc(NCCC(=O)N(C)CCOCCOCCOCCOCCOc3ccc4c(c3)C(=O)N(C3CCC(=O)NC3=O)C4=O)nc3c(F)c(-c4c(O)cccc4F)c(Cl)cc23)CC1 [compound 75, 3-(((S)-4-(4-acryloylpiperazin-1-yl)-6-chloro-8-fluoro-7-(2-fluoro-6-hydroxyphenyl)quinazolin-2-yl)amino)-N-(14-((2-(2,6-dioxopiperidin-3-yl)-1,3-dioxoisoindolin-5-yl)oxy)-3,6,9,12-tetraoxatetradecyl)-N-methylpropanamide]
Percent Degradation at Indicated Concentration (μM) (0.3 μM): C (Percent Degradation: C ≤ 35) | Percent Degradation at Indicated Concentration (μM) (1 μM): C (Percent Degradation: C ≤ 35) | Percent Degradation at Indicated Concentration (μM) (3 μM): C (Percent Degradation: C ≤ 35) | Dmax: ≤ 35%

CCC(=O)N1CCN(c2nc(NCCC(=O)N(C)CCOCCOCCOCCOCCOc3ccc4c(c3)C(=O)N(C3CCC(=O)NC3=O)C4=O)nc3c(F)c(-c4cc(O)cc5ccccc45)c(Cl)cc23)CC1 (centres unmarked) [compound 50, 3-((6-chloro-8-fluoro-7-(3-hydroxynaphthalen-1-yl)-4-(4-propionylpiperazin-1-yl)quinazolin-2-yl)amino)-N-(14-((2-(2,6-dioxopiperidin-3-yl)-1,3-dioxoisoindolin-5-yl)oxy)-3,6,9,12-tetraoxatetradecyl)-N-methylpropanamide]
Percent Degradation at Indicated Concentration (μM): 0.3 (H2030 cells, 0.3 μM): C (C ≤ 35) | Percent Degradation at Indicated Concentration (μM): 1 (H2030 cells, 1 μM): C (C ≤ 35) | Percent Degradation at Indicated Concentration (μM): 3 (H2030 cells, 3 μM): C (C ≤ 35) | Dmax (H2030 cells): ≤ 35%

C=CC(=O)N1CCN(c2nc(NCCC(=O)N(C)CCOCCOc3ccc4c(c3)CN(C3CCC(=O)NC3=O)C4=O)nc3c(F)c(-c4c(O)cccc4F)c(Cl)cc23)CC1 [compound 89, 3-((4-(4-acryloylpiperazin-1-yl)-6-chloro-8-fluoro-7-((S)-2-fluoro-6-hydroxyphenyl)quinazolin-2-yl)amino)-N-(2-(2-((2-(2,6-dioxopiperidin-3-yl)-1-oxoisoindolin-5-yl)oxy)ethoxy)ethyl)-N-methylpropanamide]
Percent Degradation at Indicated Concentration (μM) (0.3 μM): C (Percent Degradation: C ≤ 35) | Percent Degradation at Indicated Concentration (μM) (1 μM): C (Percent Degradation: C ≤ 35) | Percent Degradation at Indicated Concentration (μM) (3 μM): C (Percent Degradation: C ≤ 35) | Dmax: ≤ 35%

Cc1ncsc1-c1ccc([C@H](C)NC(=O)[C@@H]2C[C@@H](O)CN2C(=O)[C@@H](NC(=O)COCCOCCN(C)C(=O)CCNc2nc(N3CCN(C(N)=O)CC3)c3cc(Cl)c(-c4c(O)cccc4F)c(F)c3n2)C(C)(C)C)cc1 (atropisomer, axis not shown) [compound 227, 4-((S)-6-chloro-8-fluoro-7-(2-fluoro-6-hydroxyphenyl)-2-(((S)-14-((2S,4R)-4-hydroxy-2-(((S)-1-(4-(4-methylthiazol-5-yl)phenyl)ethyl)carbamoyl)pyrrolidine-1-carbonyl)-4,15,15-trimethyl-3,12-dioxo-7,10-dioxa-4,13-diazahexadecyl)amino)quinazolin-4-yl)piperazine-1-carboxamide]
Percent Degradation at Indicated Concentration (μM) (0.3 μM): C (Percent Degradation: C ≤ 35) | Percent Degradation at Indicated Concentration (μM) (1 μM): C (Percent Degradation: C ≤ 35) | Percent Degradation at Indicated Concentration (μM) (3 μM): C (Percent Degradation: C ≤ 35) | Dmax: ≤ 35%

C=CC(=O)N1CCN(c2nc(Nc3ccc(OCCOCCOCC(=O)N[C@H](C(=O)N4C[C@H](O)C[C@H]4C(=O)N[C@@H](C)c4ccc(-c5scnc5C)cc4)C(C)(C)C)cc3)nc3c(F)c(-c4cc(O)cc5ccccc45)c(Cl)cc23)CC1 [compound 482]
Percent Degradation at Indicated Concentration (μM) (0.3 μM): C (Percent Degradation: C ≤ 35) | Percent Degradation at Indicated Concentration (μM) (1 μM): C (Percent Degradation: C ≤ 35) | Percent Degradation at Indicated Concentration (μM) (3 μM): C (Percent Degradation: C ≤ 35) | Dmax: ≤ 35%

CN(CCOCCOCCOCCNc1cccc2c1C(=O)N(C1CCC(=O)NC1=O)C2=O)C(=O)CCNc1nc(N2CCN(C(N)=O)CC2)c2cc(Cl)c(-c3cc(O)cc4ccccc34)c(F)c2n1 (centres unmarked) [compound 34, 4-(6-chloro-2-((1-((2-(2,6-dioxopiperidin-3-yl)-1,3-dioxoisoindolin-4-yl)amino)-12-methyl-13-oxo-3,6,9-trioxa-12-azapentadecan-15-yl)amino)-8-fluoro-7-(3-hydroxynaphthalen-1-yl)quinazolin-4-yl)piperazine-1-carboxamide]
Percent Degradation at Indicated Concentration (μM) (0.3 μM): C (Percent Degradation: C ≤ 35) | Percent Degradation at Indicated Concentration (μM) (1 μM): C (Percent Degradation: C ≤ 35) | Percent Degradation at Indicated Concentration (μM) (3 μM): C (Percent Degradation: C ≤ 35) | Dmax: ≤ 35%

C=CC(=O)N1CCN(c2nc(NCCC(=O)N(C)CCOCCOCCOCCOc3ccc(-c4csc([C@@H]5CCCN5C(=O)[C@@H](NC(=O)[C@H](C)NC)C5CCCCC5)n4)c4ccccc34)nc3c(F)c(-c4cc(O)cc5ccccc45)c(Cl)cc23)CC1 [compound 273, 3-((4-(4-acryloylpiperazin-1-yl)-6-chloro-8-fluoro-7-(3-hydroxynaphthalen-1-yl)quinazolin-2-yl)amino)-N-(2-(2-(2-(2-((4-(2-((S)-1-((S)-2-cyclohexyl-2-((S)-2-(methylamino)propan-amido)acetyl)pyrrolidin-2-yl)thiazol-4-yl)naphthalen-1-yl)oxy)ethoxy)ethoxy)eth-oxy)ethyl)-N-methylpropanamide]
Percent Degradation at Indicated Concentration (μM) (0.3 μM): C (Percent Degradation: C ≤ 35) | Percent Degradation at Indicated Concentration (μM) (1 μM): C (Percent Degradation: C ≤ 35) | Percent Degradation at Indicated Concentration (μM) (3 μM): C (Percent Degradation: C ≤ 35) | Dmax: ≤ 35%
